Test results published in the supplement of paper PMC5662764.
± gives the standard deviation of the averaged measurements.

Tests used:
Assay in all cases: normalised growth rate inhibition (GR value) relative to DMSO control (GR (1 = untreated growth, 0 = cytostasis, <0 = cytotoxic)); higher = less growth inhibition
Conditions in all cases: 72 h
SKBR3 = system: SKBR3
Experimental: (§1)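 Breast cancer cell lines (BT-20, Hs 578T, MCF 10A, MCF7, MDA-MB-231, SK-BR-3) were plated in 384-well plates and treated 24 h later with drugs at six concentrations (0.04-10 µM). Viable cells were counted by Hoechst/dead-cell-stain imaging at 0 and 72 h. Counts were normalised to DMSO controls on the same plate to give the relative cell count and the growth-rate inhibition (GR) value; technical plate triplicates were averaged for each biological replicate.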

HS578T = system: HS578T
Experimental: as §1

MCF10A = system: MCF10A
Experimental: as §1

MDAMB231 = system: MDAMB231
Experimental: as §1

MCF7 = system: MCF7
Experimental: as §1

BT20 = system: BT20
Experimental: as §1

| SMILES | normalised growth rate inhibition (SKBR3; 0.04 µM) | normalised growth rate inhibition (SKBR3; 0.12 µM) | normalised growth rate inhibition (SKBR3; 0.37 µM) | normalised growth rate inhibition (SKBR3; 1.11 µM) | normalised growth rate inhibition (SKBR3; 3.33 µM) | normalised growth rate inhibition (SKBR3; 10 µM) | normalised growth rate inhibition (HS578T; 0.04 µM) | normalised growth rate inhibition (HS578T; 0.12 µM) | normalised growth rate inhibition (HS578T; 0.37 µM) | normalised growth rate inhibition (HS578T; 1.11 µM) | normalised growth rate inhibition (HS578T; 3.33 µM) | normalised growth rate inhibition (HS578T; 10 µM) | normalised growth rate inhibition (MCF10A; 0.04 µM) | normalised growth rate inhibition (MCF10A; 0.12 µM) | normalised growth rate inhibition (MCF10A; 0.37 µM) | normalised growth rate inhibition (MCF10A; 1.11 µM) | normalised growth rate inhibition (MCF10A; 3.33 µM) | normalised growth rate inhibition (MCF10A; 10 µM) | normalised growth rate inhibition (MDAMB231; 0.04 µM) | normalised growth rate inhibition (MDAMB231; 0.12 µM) | normalised growth rate inhibition (MDAMB231; 0.37 µM) | normalised growth rate inhibition (MDAMB231; 1.11 µM) | normalised growth rate inhibition (MDAMB231; 3.33 µM) | normalised growth rate inhibition (MDAMB231; 10 µM) | normalised growth rate inhibition (MCF7; 0.04 µM) | normalised growth rate inhibition (MCF7; 0.12 µM) | normalised growth rate inhibition (MCF7; 0.37 µM) | normalised growth rate inhibition (MCF7; 1.11 µM) | normalised growth rate inhibition (MCF7; 3.33 µM) | normalised growth rate inhibition (MCF7; 10 µM) | normalised growth rate inhibition (BT20; 0.04 µM) | normalised growth rate inhibition (BT20; 0.12 µM) | normalised growth rate inhibition (BT20; 0.37 µM) | normalised growth rate inhibition (BT20; 1.11 µM) | normalised growth rate inhibition (BT20; 3.33 µM) | normalised growth rate inhibition (BT20; 10 µM) |
| --- | --- | --- | --- | --- | --- | --- | --- | --- | --- | --- | --- | --- | --- | --- | --- | --- | --- | --- | --- | --- | --- | --- | --- | --- | --- | --- | --- | --- | --- | --- | --- | --- | --- | --- | --- | --- |
| COc1cc2ncn(-c3cc(OCc4ccccc4C(F)(F)F)c(C(N)=O)s3)c2cc1OC | 0.847 ± 0.018 | 0.463 ± 0.19 | -0.0831 ± 0.12 | -0.157 ± 0.18 | -0.213 ± 0.17 | 0.0233 ± 0.42 | 0.959 ± 0.075 | 0.603 ± 0.19 | 0.0393 ± 0.039 | -0.137 ± 0.087 | -0.145 ± 0.12 | 0.00336 ± 0.2 | 0.96 ± 0.027 | 0.817 ± 0.083 | 0.412 ± 0.13 | 0.0464 ± 0.034 | -0.0733 ± 0.13 | -0.101 ± 0.17 | 0.892 ± 0.064 | 0.736 ± 0.11 | 0.404 ± 0.12 | 0.0556 ± 0.12 | -0.0347 ± 0.12 | 0.0238 ± 0.14 | 0.68 ± 0.15 | 0.279 ± 0.18 | 0.14 ± 0.023 | 0.072 ± 0.019 | 0.0415 ± 0.007 | 0.167 ± 0.099 | 0.853 ± 0.061 | 0.614 ± 0.18 | 0.331 ± 0.27 | -0.00404 ± 0.12 | -0.126 ± 0.06 | -0.0325 ± 0.31 |
| Cc1nc(NC(=O)N2CCC[C@H]2C(N)=O)sc1-c1ccnc(C(C)(C)C(F)(F)F)c1 | 0.896 ± 0.061 | 0.811 ± 0.059 | 0.679 ± 0.051 | 0.553 ± 0.039 | 0.323 ± 0.11 | -0.0922 ± 0.15 | 0.971 ± 0.012 | 0.9151 ± 0.001 | 0.871 ± 0.026 | 0.838 ± 0.026 | 0.762 ± 0.011 | 0.561 ± 0.051 | 0.976 ± 0.022 | 0.94 ± 0.041 | 0.896 ± 0.061 | 0.865 ± 0.064 | 0.77 ± 0.11 | 0.439 ± 0.14 | 0.997 ± 0.058 | 0.986 ± 0.038 | 0.963 ± 0.048 | 0.935 ± 0.032 | 0.89 ± 0.015 | 0.65 ± 0.09 | 0.871 ± 0.11 | 0.701 ± 0.1 | 0.508 ± 0.14 | 0.365 ± 0.11 | 0.204 ± 0.099 | -0.0344 ± 0.057 | 1.04 ± 0.017 | 0.979 ± 0.048 | 0.722 ± 0.027 | 0.553 ± 0.12 | 0.123 ± 0.047 | -0.157 ± 0.072 |
| CN(c1ncccc1CNc1nc(Nc2ccc3c(c2)CC(=O)N3)ncc1C(F)(F)F)S(C)(=O)=O | 1.05 ± 0.051 | 0.984 ± 0.095 | 0.704 ± 0.099 | 0.198 ± 0.053 | -0.0632 ± 0.084 | -0.254 ± 0.25 | 0.897 ± 0.02 | 0.812 ± 0.035 | 0.735 ± 0.034 | 0.62 ± 0.042 | 0.438 ± 0.048 | -0.0953 ± 0.11 | 0.894 ± 0.02 | 0.814 ± 0.017 | 0.66 ± 0.014 | 0.4 ± 0.098 | 0.0782 ± 0.016 | -0.191 ± 0.2 | 0.897 ± 0.027 | 0.825 ± 0.081 | 0.741 ± 0.075 | 0.577 ± 0.14 | 0.166 ± 0.14 | -0.196 ± 0.22 | 0.8557 ± 0.0043 | 0.759 ± 0.054 | 0.529 ± 0.066 | 0.251 ± 0.094 | -0.0743 ± 0.044 | -0.309 ± 0.069 | 0.921 ± 0.011 | 0.879 ± 0.031 | 0.815 ± 0.069 | 0.583 ± 0.13 | 0.201 ± 0.15 | -0.212 ± 0.071 |
| NC(=O)Nc1cc(-c2cccc(F)c2)sc1C(=O)N[C@H]1CCCNC1 [AZD-7762] | 0.0117 ± 0.2 | -0.11 ± 0.19 | -0.168 ± 0.17 | -0.273 ± 0.16 | -0.301 ± 0.14 | -0.341 ± 0.13 | 0.41 ± 0.2 | 0.0861 ± 0.15 | -0.0107 ± 0.13 | -0.108 ± 0.14 | -0.187 ± 0.13 | -0.289 ± 0.13 | 0.878 ± 0.077 | 0.749 ± 0.11 | 0.647 ± 0.1 | 0.43 ± 0.097 | 0.188 ± 0.052 | -0.177 ± 0.082 | 0.7 ± 0.19 | 0.387 ± 0.1 | 0.196 ± 0.21 | -0.0971 ± 0.13 | -0.246 ± 0.14 | -0.29 ± 0.16 | 0.27 ± 0.063 | 0.176 ± 0.061 | 0.0985 ± 0.048 | -0.000407 ± 0.031 | -0.103 ± 0.015 | -0.276 ± 0.042 | 1.05 ± 0.054 | 0.874 ± 0.14 | 0.634 ± 0.15 | 0.262 ± 0.15 | -0.0616 ± 0.12 | -0.418 ± 0.099 |
| COc1cc(OC)cc(-c2ccc3ncc4ccc(=O)n(-c5ccc(N6CCNCC6)c(C(F)(F)F)c5)c4c3c2)c1 [JW-7-24-1] | 0.615 ± 0.034 | 0.695 ± 0.042 | 0.591 ± 0.047 | 0.457 ± 0.038 | 0.273 ± 0.041 | -0.224 ± 0.14 | 0.929 ± 0.017 | 0.89 ± 0.039 | 0.765 ± 0.034 | 0.581 ± 0.029 | 0.384 ± 0.037 | -0.198 ± 0.14 | 0.986 ± 0.034 | 0.986 ± 0.044 | 0.952 ± 0.069 | 0.911 ± 0.11 | 0.84 ± 0.15 | 0.176 ± 0.17 | 0.823 ± 0.12 | 0.859 ± 0.088 | 0.754 ± 0.09 | 0.624 ± 0.12 | 0.543 ± 0.11 | -0.122 ± 0.17 | 0.607 ± 0.09 | 0.551 ± 0.07 | 0.373 ± 0.12 | 0.236 ± 0.08 | 0.139 ± 0.078 | -0.135 ± 0.0036 | 0.797 ± 0.057 | 0.876 ± 0.078 | 0.822 ± 0.08 | 0.755 ± 0.18 | 0.61 ± 0.25 | -0.0316 ± 0.17 |
| CS(=O)(=O)N1CCN(Cc2cc3nc(-c4cccc5[nH]ncc45)nc(N4CCOCC4)c3s2)CC1 [GDC-0941] | 0.384 ± 0.11 | 0.283 ± 0.088 | 0.131 ± 0.099 | 0.0555 ± 0.16 | 0.00405 ± 0.15 | -0.0817 ± 0.19 | 0.779 ± 0.032 | 0.675 ± 0.031 | 0.568 ± 0.088 | 0.466 ± 0.1 | 0.408 ± 0.096 | 0.263 ± 0.077 | 0.869 ± 0.15 | 0.792 ± 0.18 | 0.625 ± 0.21 | 0.427 ± 0.14 | 0.289 ± 0.087 | 0.102 ± 0.038 | 0.784 ± 0.092 | 0.797 ± 0.069 | 0.715 ± 0.011 | 0.676 ± 0.056 | 0.644 ± 0.053 | 0.372 ± 0.1 | 0.331 ± 0.1 | 0.176 ± 0.079 | 0.0196 ± 0.047 | -0.00416 ± 0.0071 | -0.0358 ± 0.013 | -0.081 ± 0.069 | 0.717 ± 0.053 | 0.689 ± 0.067 | 0.502 ± 0.17 | 0.258 ± 0.19 | 0.0678 ± 0.098 | -0.056 ± 0.052 |
| CCOc1cc2ncc(C#N)c(Nc3ccc(OCc4ccccn4)c(Cl)c3)c2cc1NC(=O)/C=C/CN(C)C [neratinib] | -0.108 ± 0.19 | -0.114 ± 0.2 | -0.14 ± 0.19 | -0.118 ± 0.22 | -0.152 ± 0.22 | -0.215 ± 0.19 | 0.887 ± 0.0023 | 0.81 ± 0.0089 | 0.649 ± 0.085 | 0.485 ± 0.22 | 0.274 ± 0.24 | 0.0282 ± 0.1 | 0.441 ± 0.24 | 0.314 ± 0.19 | 0.191 ± 0.11 | 0.168 ± 0.098 | 0.131 ± 0.058 | 0.122 ± 0.054 | 0.907 ± 0.13 | 0.868 ± 0.15 | 0.728 ± 0.12 | 0.581 ± 0.23 | 0.387 ± 0.29 | 0.0691 ± 0.39 | 0.722 ± 0.12 | 0.663 ± 0.081 | 0.585 ± 0.042 | 0.419 ± 0.23 | 0.299 ± 0.21 | 0.0822 ± 0.12 | 0.724 ± 0.042 | 0.669 ± 0.069 | 0.617 ± 0.11 | 0.528 ± 0.11 | 0.41 ± 0.12 | 0.301 ± 0.13 |
